Activity calls are given as the source filed them. The rule behind the calls is not given here.
Columns and labels:
Mus musculus [1] = test: Immunomodulatory activity in 129/SvEvBrd X C57BL/6 F1 mouse assessed as decrease in peripheral blood lymphocyte count at 30 mg/kg, po measured after 18 hrs by complete blood count analysis relative to control; assay type: ADME, organism-based; set-up: dose 30 mg/kg, route oral; scale not given: the % may be the effect or the level left; conditions: in vivo
[2] = (§1) AUC (0 to infinity) in 129/SvEvBrd X C57BL/6 F1 mouse at 10 mg/kg, po by LC/MS/MS analysis; assay type: ADME, organism-based, Plasma; set-up: time infinity, dose 10 mg/kg, route oral; conditions: 129/SvEvBrd X C57BL/6 F1, mouse, plasma
[3] = Half life in 129/SvEvBrd X C57BL/6 F1 mouse at 10 mg/kg, po by LC/MS/MS analysis; assay type: ADME, organism-based; set-up: dose 10 mg/kg, route oral; conditions: in vivo
[4] = Cmax in 129/SvEvBrd X C57BL/6 F1 mouse at 10 mg/kg, po by LC/MS/MS analysis; assay type: ADME, organism-based; set-up: dose 10 mg/kg, route oral; conditions: in vivo
[5] = Tmax in 129/SvEvBrd X C57BL/6 F1 mouse at 10 mg/kg, po by LC/MS/MS analysis; assay type: ADME, organism-based; set-up: dose 10 mg/kg, route oral; conditions: in vivo
[6] = Volume of distribution at steady state in 129/SvEvBrd X C57BL/6 F1 mouse at 1 mg/kg, iv by LC/MS/MS analysis; assay type: ADME, organism-based; set-up: dose 1 mg/kg, route intravenous; conditions: in vivo, read-out: Vdss
Mus musculus [7] = test: Bioavailability in 129/SvEvBrd X C57BL/6 F1 mouse determined from 1 mg/kg, iv and 10 mg/kg, po by LC/MS/MS analysis; assay type: ADME, organism-based; conditions: mouse, in vivo
Mus musculus [8] = test: Antiarthritic activity in […] collagen-induced arthritis in mouse assessed as decrease in joint swelling at 30 mg/kg, po administered qd on day 20 after collagen challenge by ELISA; assay type: functional, organism-based; set-up: dose 30 mg/kg
Mus musculus [9] = test: Antiarthritic activity in […] collagen-induced arthritis in mouse assessed as decrease in clinical scores at 30 mg/kg, po administered qd on day 20 after collagen challenge by ELISA; assay type: functional, organism-based; set-up: dose 30 mg/kg
Mus musculus [10] = test: Effect on serum anti-CII antibody levels in type 2 collagen-induced arthritis in mouse at 30 mg/kg, po administered qd on day 20 after collagen challenge by ELISA; assay type: functional, organism-based; set-up: dose 30 mg/kg
Mus musculus [11] = test: Antiarthritic activity in […] collagen-induced arthritis in mouse assessed as decrease in joint swelling at 5 mg/kg, po administered qd on day 20 after collagen challenge by ELISA; assay type: functional, organism-based; set-up: dose 5 mg/kg
Mus musculus [12] = test: Antiarthritic activity in […] collagen-induced arthritis in mouse assessed as decrease in clinical scores at 5 mg/kg, po administered qd on day 20 after collagen challenge by ELISA; assay type: functional, organism-based; set-up: dose 5 mg/kg
Mus musculus [13] = test: as §1; assay type: ADME, organism-based, Plasma; set-up: time infinity, dose 10 mg/kg, route oral; conditions: mouse, in vivo
Rattus norvegicus [14] = test: Immunomodulatory activity in Sprague-Dawley rat thymus assessed as reduction in peripheral blood lymphocyte level at 30 mg/kg, po administered daily for 3 days measured after 18 hrs by CBC analysis; assay type: functional, organism-based; set-up: dose 30 mg/kg
Rattus norvegicus [15] = test: Immunomodulatory activity in Sprague-Dawley rat spleen assessed as reduction in peripheral blood lymphocyte level at 30 mg/kg, po administered daily for 3 days measured after 18 hrs by CBC analysis; assay type: functional, organism-based; set-up: dose 30 mg/kg
Rattus norvegicus [16] = test: Immunomodulatory activity in Sprague-Dawley rat jejunum assessed as reduction in peripheral blood lymphocyte level at 30 mg/kg, po administered daily for 3 days measured after 18 hrs by CBC analysis; assay type: functional, organism-based; set-up: dose 30 mg/kg
Rattus norvegicus [17] = test: Immunomodulatory activity in Sprague-Dawley rat lymph node assessed as reduction in peripheral blood lymphocyte level at 30 mg/kg, po administered daily for 3 days measured after 18 hrs by CBC analysis; assay type: functional, organism-based; set-up: dose 30 mg/kg
Rattus norvegicus [18] = test: Immunomodulatory activity in Sprague-Dawley rat heart assessed as reduction in peripheral blood lymphocyte level at 30 mg/kg, po administered daily for 3 days measured after 18 hrs by CBC analysis; assay type: functional, organism-based; set-up: dose 30 mg/kg
Rattus norvegicus [19] = test: Immunomodulatory activity in Sprague-Dawley rat eye assessed as reduction in peripheral blood lymphocyte level at 30 mg/kg, po administered daily for 3 days measured after 18 hrs by CBC analysis; assay type: functional, organism-based; set-up: dose 30 mg/kg
Rattus norvegicus [20] = test: Immunomodulatory activity in Sprague-Dawley rat liver assessed as reduction in peripheral blood lymphocyte level at 30 mg/kg, po administered daily for 3 days measured after 18 hrs by CBC analysis; assay type: functional, organism-based; set-up: dose 30 mg/kg
Rattus norvegicus [21] = test: Immunomodulatory activity in Sprague-Dawley rat kidney assessed as reduction in peripheral blood lymphocyte level at 30 mg/kg, po administered daily for 3 days measured after 18 hrs by CBC analysis; assay type: functional, organism-based; set-up: dose 30 mg/kg
Rattus norvegicus [22] = test: Immunomodulatory activity in Sprague-Dawley rat lung assessed as reduction in peripheral blood lymphocyte level at 30 mg/kg, po administered daily for 3 days measured after 18 hrs by CBC analysis; assay type: functional, organism-based; set-up: dose 30 mg/kg
Rattus norvegicus [23] = test: Increase in S1P level Sprague-Dawley rat heart at 30 mg/kg, po administered daily for 3 days measured after 18 hrs […]; assay type: functional, organism-based; set-up: dose 30 mg/kg
Rattus norvegicus [24] = test: Increase in S1P level in Sprague-Dawley rat eye at 30 mg/kg, po administered daily for 3 days measured after 18 hrs […]; assay type: functional, organism-based; set-up: dose 30 mg/kg
Mus musculus [25] = test: Immunomodulatory activity in mouse assessed as induction of lymphopenia at 5 to 10 mg/kg, po administered as single dose measured after 18 hrs; assay type: functional, organism-based
Mus musculus [26] = test: Antiarthritic activity in […] collagen-induced arthritic mouse assessed as delay in onset of collagen-induced arthritis at 100 mg/kg, po administered qd one started one day before collagen challenge; assay type: functional, organism-based; set-up: dose 100 mg/kg
Mus musculus [27] = test: Antiarthritic activity in […] collagen-induced arthritic mouse assessed as decrease in arthritic score at 100 mg/kg, po administered qd one started one day before collagen challenge; assay type: functional, organism-based; set-up: dose 100 mg/kg
Mus musculus [28] = test: Antiarthritic activity in […] collagen-induced arthritic mouse assessed as decrease in joint swelling at 100 mg/kg, po administered qd one started one day before collagen challenge; assay type: functional, organism-based; set-up: dose 100 mg/kg
Mus musculus [29] = test: Antiarthritic activity in […] collagen-induced arthritic mouse assessed as increase in CD4-positive cells in thymus at 100 mg/kg, po qd administered one day before collagen challenge; assay type: functional, organism-based; set-up: dose 100 mg/kg
Mus musculus [30] = test: Antiarthritic activity in […] collagen-induced arthritic mouse assessed as increase in CD8-positive cells in thymus at 100 mg/kg, po qd administered one day before collagen challenge; assay type: functional, organism-based; set-up: dose 100 mg/kg
Mus musculus [31] = test: Antiarthritic activity in […] collagen-induced arthritic mouse assessed as decrease in synovial hyperplasia at 100 mg/kg, po administered qd one started one day before collagen challenge; assay type: functional, organism-based; set-up: dose 100 mg/kg
Mus musculus [32] = test: Antiarthritic activity in […] collagen-induced arthritic mouse assessed as decrease in inflammation at 100 mg/kg, po administered qd one started one day before collagen challenge; assay type: functional, organism-based; set-up: dose 100 mg/kg
Mus musculus [33] = test: Antiarthritic activity in […] collagen-induced arthritic mouse assessed as decrease in erosion at 100 mg/kg, po administered qd one started one day before collagen challenge; assay type: functional, organism-based; set-up: dose 100 mg/kg
Mus musculus [34] = test: Antiarthritic activity in […] collagen-induced arthritic mouse assessed as decrease in exudate formation at 100 mg/kg, po administered qd one started one day before collagen challenge; assay type: functional, organism-based; set-up: dose 100 mg/kg

Structure (SMILES): Cl.OC[C@@H](O)[C@@H](O)[C@H](O)c1c[nH]c(-c2cc(C3CC3)on2)n1
- Activity (Mus musculus [1]): -19%
- AUC(0-inf) [2]: 9.6 µM·h

Structure (SMILES): CC(=O)c1c(-c2nc([C@@H](O)[C@H](O)[C@H](O)CO)c[nH]2)noc1C.Cl
- Activity (Mus musculus [1]): -6%
- AUC(0-inf) [2]: 11.7 µM·h

Structure (SMILES): Cc1onc(-c2nc([C@@H](O)[C@H](O)[C@H](O)CO)c[nH]2)c1[N+](=O)[O-].Cl
- Activity (Mus musculus [1]): -27%
- AUC(0-inf) [2]: 8.2 µM·h

Structure (SMILES): Cl.OCc1cc(-c2nc([C@@H](O)[C@H](O)[C@H](O)CO)c[nH]2)no1
- Activity (Mus musculus [1]): -7%
- AUC(0-inf) [2]: 6.1 µM·h

Structure (SMILES): Cl.OC[C@@H](O)[C@@H](O)[C@H](O)c1c[nH]c(-c2ccon2)n1
- half-life [3]: 2.9 h
- Cmax [4]: 6.2 µM
- Tmax [5]: 2.1 h
- Vd [6]: 0.54 L/kg
- F (Mus musculus [7]): 2.4%
- Activity (Mus musculus [8]): Active
- Activity (Mus musculus [9]): Active
- Activity (Mus musculus [10]): inactive
- Activity (Mus musculus [11]): Active
- Activity (Mus musculus [12]): Active
- Activity (Mus musculus [1]): -70%
- AUC (Mus musculus [13]): 21 µM·h

Structure (SMILES): CC(C)c1cc(-c2nc([C@@H](O)[C@H](O)[C@H](O)CO)c[nH]2)no1.Cl
- Activity (Mus musculus [1]): -30%
- AUC(0-inf) [2]: 12.8 µM·h

Structure (SMILES): CN(C)Cc1cc(-c2nc([C@@H](O)[C@H](O)[C@H](O)CO)c[nH]2)no1.Cl
- Activity (Mus musculus [1]): -10%
- AUC(0-inf) [2]: 5.9 µM·h

Structure (SMILES): Cl.OC[C@@H](O)[C@@H](O)[C@H](O)c1c[nH]c(-c2cc(-c3ccccc3)on2)n1
- Activity (Mus musculus [1]): -2%
- AUC(0-inf) [2]: 10.3 µM·h

Structure (SMILES): Cl.OC[C@@H](O)[C@@H](O)[C@H](O)c1c[nH]c(-c2cc(C(F)(F)F)on2)n1
- Activity (Mus musculus [1]): 2%
- AUC(0-inf) [2]: 7.8 µM·h

Structure (SMILES): CCc1conc1-c1nc([C@@H](O)[C@H](O)[C@H](O)CO)c[nH]1.Cl
- Activity (Mus musculus [1]): -55%
- AUC(0-inf) [2]: 26.9 µM·h

Structure (SMILES): CC(=O)c1nc([C@@H](O)[C@H](O)[C@H](O)CO)c[nH]1.Cl
- Activity (Mus musculus [1]): -25%
- AUC(0-inf) [2]: 15 µM·h

Structure (SMILES): Cc1cc(-c2nc([C@@H](O)[C@H](O)[C@H](O)CO)c[nH]2)no1.Cl
- Activity (Mus musculus [1]): -39%
- AUC(0-inf) [2]: 12.5 µM·h

Structure (SMILES): C/C(=N\O)c1ncc([C@@H](O)[C@H](O)[C@H](O)CO)[nH]1
- Activity (Rattus norvegicus [14]): Active
- Activity (Rattus norvegicus [15]): Active
- Activity (Rattus norvegicus [16]): Active
- Activity (Rattus norvegicus [17]): Active
- Activity (Rattus norvegicus [18]): Active
- Activity (Rattus norvegicus [19]): Active
- Activity (Rattus norvegicus [20]): Active
- Activity (Rattus norvegicus [21]): Active
- Activity (Rattus norvegicus [22]): Active
- Activity (Rattus norvegicus [23]): inactive
- Activity (Rattus norvegicus [24]): inactive
- Activity (Mus musculus [25]): inactive
- Activity (Mus musculus [26]): Active
- Activity (Mus musculus [27]): Active
- Activity (Mus musculus [28]): Active
- Activity (Mus musculus [29]): Active
- Activity (Mus musculus [30]): Active
- Activity (Mus musculus [31]): Active
- Activity (Mus musculus [32]): Active
- Activity (Mus musculus [33]): Active
- Activity (Mus musculus [34]): Active
- Activity (Mus musculus [8]): Active
- Activity (Mus musculus [9]): Active
- Activity (Mus musculus [10]): inactive
- Activity (Mus musculus [11]): Active
- Activity (Mus musculus [12]): Active

Structure (SMILES): Cl.OC[C@@H](O)[C@@H](O)[C@H](O)c1c[nH]c(C2=NOCC2)n1
- Activity (Mus musculus [1]): -12%
- AUC(0-inf) [2]: 8.3 µM·h

Structure (SMILES): Cc1cc(-c2nc([C@@H](O)[C@H](O)[C@H](O)CO)c[nH]2)on1.Cl
- Activity (Mus musculus [1]): -4%
- AUC(0-inf) [2]: 5.3 µM·h

Structure (SMILES): CCOc1cc(-c2nc([C@@H](O)[C@H](O)[C@H](O)CO)c[nH]2)no1.Cl
- Activity (Mus musculus [1]): -26%
- AUC(0-inf) [2]: 9.1 µM·h

— ChEMBL document CHEMBL1799925, “Inhibition of sphingosine 1-phosphate lyase for the treatment of rheumatoid arthritis: discovery of (E)-1-(4-((1R,2S,3R)-1,2,3,4-tetrahydroxybutyl)-1H-imidazol-2-yl)ethanone oxime (LX2931) and (1R,2S,3R)-1-(2-(isoxazol-3-yl)-1H-imidazol-4-yl)butane-1,2,3,4-tetraol (LX2932)” (J Med Chem, 2010)
